According to patent US10280170B2, “Substituted 4,5,6,7-tetrahydro-pyrazolo[1,5-a]pyrazine derivatives and 5,6,7,8-tetrahydro-4H-pyrazolo[1,5-a][1,4]diazepine derivatives as Ros1 inhibitors” (Janssen Pharmaceutica NV, priority 2014, dated 2019):
Like-named read-outs stand apart in the source and are kept apart here.

Columns and labels:
[1] = test system: HCC78 non-small cell lung cancer cells; test: HCC78 cell proliferation assay; assay type: cell-based; conditions: for EC50: Homo sapiens, HCC78, 96 h, read-out: HCC-78 PROL pEC50 (converted)
Protocol: HCC78 Cell Proliferation Assay
Approximately 1000 HCC78 non-small cell lung cancer cells in 180 μl of cell culture medium (RPMI-1640, 10% FBS, 2 mM L-Glutamine, 10 mM Hepes, 1 mM sodium pyruvate, 4.5 g/L glucose, 1.5 g/L sodium bicarbonate, 25 μg/ml Gentamycin) were seeded in each well of a 96-well polystyrene, tissue-culture treated plate and incubated at 37° C. and 5% CO2. After 24 hours, compounds were diluted in cell culture medium from which 20 μl was added to the wells containing cells and incubated for 4 days at 37° C. and 5% CO2. A 5 mg/ml solution of the tetrazolium dye MTT was prepared in PBS (phosphate-buffered saline) and 25 μl was added to each well. After 2 hours the medium was removed and replaced by 125 μL of 4/1 DMSO/glycine buffer (0.1M glycine, 0.1M NaCl, pH 10.5) before absorbance was determined at 538 nm.

[2] = test system: Ba/F3 cells containing Ros1 wild-type protein + IL-3; test: Ba/F3-Ros1 cell proliferation counter-screen, wild-type protein in the presence of 10 ng/ml murine IL-3; assay type: cell-based; conditions: Mus musculus, BaF3, 24 h, read-out: BaF3-ROS1 + IL3 pIC50 (converted)
Method in brief: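 Read-out is resazurin-based Alamar Blue fluorescence (RFU, ex 540 nm, em 590 nm), measured 4 h after dye addition. Before that, wild-type Ros1 Ba/F3 cells had been cultured 24 h with compound in the presence of 10 ng/ml murine IL-3.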

[3] = target: Ba/F3 cells containing Ros1 with a mutation at the gatekeeper residue (L2026M) (Homo sapiens, UniProt P08922, L2026M, cells depend on it, form not given); test: Ba/F3-Ros1 cell proliferation assay, L2026M gatekeeper mutant; assay type: cell-based, murine; conditions: without IL-3
Chain of Ba/F3 cells containing Ros1 with a mutation at the gatekeeper residue (L2026M) (P08922 whole entry L2026M, form open): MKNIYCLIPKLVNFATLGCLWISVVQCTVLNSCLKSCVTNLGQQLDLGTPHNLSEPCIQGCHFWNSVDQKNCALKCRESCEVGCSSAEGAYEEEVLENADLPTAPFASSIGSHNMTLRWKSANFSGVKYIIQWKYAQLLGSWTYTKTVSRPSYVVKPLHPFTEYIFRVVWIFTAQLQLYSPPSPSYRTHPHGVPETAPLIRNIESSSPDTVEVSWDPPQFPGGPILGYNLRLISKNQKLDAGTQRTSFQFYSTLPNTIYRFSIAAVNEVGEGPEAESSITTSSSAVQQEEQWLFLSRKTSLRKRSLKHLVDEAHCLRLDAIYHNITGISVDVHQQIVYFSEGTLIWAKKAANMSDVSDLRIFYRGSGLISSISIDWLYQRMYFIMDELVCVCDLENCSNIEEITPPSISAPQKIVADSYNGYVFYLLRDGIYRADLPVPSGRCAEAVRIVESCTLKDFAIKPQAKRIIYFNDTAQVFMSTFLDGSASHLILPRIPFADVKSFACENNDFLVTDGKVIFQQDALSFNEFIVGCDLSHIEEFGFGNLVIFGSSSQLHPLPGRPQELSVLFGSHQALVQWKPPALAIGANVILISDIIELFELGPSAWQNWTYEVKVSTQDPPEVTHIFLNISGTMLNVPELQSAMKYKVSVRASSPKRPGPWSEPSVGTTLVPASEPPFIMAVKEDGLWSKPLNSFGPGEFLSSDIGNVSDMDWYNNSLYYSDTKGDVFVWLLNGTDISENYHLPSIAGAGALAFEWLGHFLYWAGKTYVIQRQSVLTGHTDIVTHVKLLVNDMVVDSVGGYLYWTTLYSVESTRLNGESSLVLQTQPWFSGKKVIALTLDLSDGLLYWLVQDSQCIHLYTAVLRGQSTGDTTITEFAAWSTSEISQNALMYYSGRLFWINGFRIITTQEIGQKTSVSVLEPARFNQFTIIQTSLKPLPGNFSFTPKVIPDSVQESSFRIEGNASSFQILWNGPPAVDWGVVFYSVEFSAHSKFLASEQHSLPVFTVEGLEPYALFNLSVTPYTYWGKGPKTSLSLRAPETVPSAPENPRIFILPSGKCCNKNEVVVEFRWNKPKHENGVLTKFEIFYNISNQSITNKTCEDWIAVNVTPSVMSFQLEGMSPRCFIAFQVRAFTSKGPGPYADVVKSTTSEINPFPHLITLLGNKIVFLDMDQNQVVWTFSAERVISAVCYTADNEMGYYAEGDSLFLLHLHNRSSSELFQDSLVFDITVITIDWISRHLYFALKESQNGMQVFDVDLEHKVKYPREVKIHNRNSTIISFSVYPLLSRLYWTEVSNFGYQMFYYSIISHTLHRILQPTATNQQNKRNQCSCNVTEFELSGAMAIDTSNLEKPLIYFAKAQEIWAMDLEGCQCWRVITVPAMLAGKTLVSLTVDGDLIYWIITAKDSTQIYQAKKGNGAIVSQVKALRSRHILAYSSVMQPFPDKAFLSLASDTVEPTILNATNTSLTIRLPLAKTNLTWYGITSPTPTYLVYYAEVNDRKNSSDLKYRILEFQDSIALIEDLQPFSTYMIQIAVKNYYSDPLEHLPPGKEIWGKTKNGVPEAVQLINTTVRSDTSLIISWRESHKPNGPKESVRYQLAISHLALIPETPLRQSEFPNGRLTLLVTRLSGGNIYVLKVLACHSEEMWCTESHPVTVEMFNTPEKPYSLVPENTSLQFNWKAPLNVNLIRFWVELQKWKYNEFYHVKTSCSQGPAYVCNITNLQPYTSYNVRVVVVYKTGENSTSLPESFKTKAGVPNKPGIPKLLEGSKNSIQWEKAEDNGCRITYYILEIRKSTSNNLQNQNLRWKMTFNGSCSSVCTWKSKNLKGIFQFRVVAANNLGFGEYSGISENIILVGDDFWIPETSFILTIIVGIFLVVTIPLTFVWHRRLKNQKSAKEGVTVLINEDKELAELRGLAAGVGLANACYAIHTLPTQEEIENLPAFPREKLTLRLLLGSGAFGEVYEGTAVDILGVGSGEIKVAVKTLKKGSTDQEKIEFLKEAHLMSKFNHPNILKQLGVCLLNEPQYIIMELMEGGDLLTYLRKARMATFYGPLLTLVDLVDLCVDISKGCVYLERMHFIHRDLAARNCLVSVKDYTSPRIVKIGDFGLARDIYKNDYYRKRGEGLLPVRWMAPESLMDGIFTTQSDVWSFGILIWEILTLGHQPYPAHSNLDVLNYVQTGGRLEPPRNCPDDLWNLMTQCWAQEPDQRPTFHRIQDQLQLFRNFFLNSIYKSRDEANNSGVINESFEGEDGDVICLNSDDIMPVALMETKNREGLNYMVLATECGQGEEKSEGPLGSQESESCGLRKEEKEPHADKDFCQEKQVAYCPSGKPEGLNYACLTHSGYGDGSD
Method in brief: (§1)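 Alamar Blue read-out (resazurin, ex. 540 nm, em. 590 nm, 4 h at 37 °C) after 24 h compound exposure of 20000 Ba/F3-Ros1 cells per well. Cells carry WT, gatekeeper L2026M or crizotinib-resistant G2032R Ros1; medium RPMI-1640, 10% FBS, 2 mM L-Glutamine.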

[4] = target: T1, Ba/F3 cells containing Ros1 wild-type protein (Homo sapiens, UniProt P08922, cells depend on it, form not given); test: Ba/F3-Ros1 cell proliferation assay, wild-type Ros1; assay type: cell-based, murine; conditions: without IL-3
T1 construct: The background only speaks of 'a number of different unrelated proteins' and names SLC34A2-ROS1 for HCC78 cells
T1 sequence (P08922 whole entry, stated change not applied): as the sequence (P08922 whole entry L2026M, form open) above, with M2026L counted along it
Method in brief: as §1

Ros1 enzyme = target: T2, Ros1 enzyme (Homo sapiens, UniProt P08922); test: Ros1 enzymatic assay; assay type: biochemical; conditions: Ros1 enzymatic assay; for IC50: read-out: ROS1 pIC50 (converted)
T2 construct: 0.5 μg/ml Ros1 enzyme
T2 sequence (P08922 28-2347): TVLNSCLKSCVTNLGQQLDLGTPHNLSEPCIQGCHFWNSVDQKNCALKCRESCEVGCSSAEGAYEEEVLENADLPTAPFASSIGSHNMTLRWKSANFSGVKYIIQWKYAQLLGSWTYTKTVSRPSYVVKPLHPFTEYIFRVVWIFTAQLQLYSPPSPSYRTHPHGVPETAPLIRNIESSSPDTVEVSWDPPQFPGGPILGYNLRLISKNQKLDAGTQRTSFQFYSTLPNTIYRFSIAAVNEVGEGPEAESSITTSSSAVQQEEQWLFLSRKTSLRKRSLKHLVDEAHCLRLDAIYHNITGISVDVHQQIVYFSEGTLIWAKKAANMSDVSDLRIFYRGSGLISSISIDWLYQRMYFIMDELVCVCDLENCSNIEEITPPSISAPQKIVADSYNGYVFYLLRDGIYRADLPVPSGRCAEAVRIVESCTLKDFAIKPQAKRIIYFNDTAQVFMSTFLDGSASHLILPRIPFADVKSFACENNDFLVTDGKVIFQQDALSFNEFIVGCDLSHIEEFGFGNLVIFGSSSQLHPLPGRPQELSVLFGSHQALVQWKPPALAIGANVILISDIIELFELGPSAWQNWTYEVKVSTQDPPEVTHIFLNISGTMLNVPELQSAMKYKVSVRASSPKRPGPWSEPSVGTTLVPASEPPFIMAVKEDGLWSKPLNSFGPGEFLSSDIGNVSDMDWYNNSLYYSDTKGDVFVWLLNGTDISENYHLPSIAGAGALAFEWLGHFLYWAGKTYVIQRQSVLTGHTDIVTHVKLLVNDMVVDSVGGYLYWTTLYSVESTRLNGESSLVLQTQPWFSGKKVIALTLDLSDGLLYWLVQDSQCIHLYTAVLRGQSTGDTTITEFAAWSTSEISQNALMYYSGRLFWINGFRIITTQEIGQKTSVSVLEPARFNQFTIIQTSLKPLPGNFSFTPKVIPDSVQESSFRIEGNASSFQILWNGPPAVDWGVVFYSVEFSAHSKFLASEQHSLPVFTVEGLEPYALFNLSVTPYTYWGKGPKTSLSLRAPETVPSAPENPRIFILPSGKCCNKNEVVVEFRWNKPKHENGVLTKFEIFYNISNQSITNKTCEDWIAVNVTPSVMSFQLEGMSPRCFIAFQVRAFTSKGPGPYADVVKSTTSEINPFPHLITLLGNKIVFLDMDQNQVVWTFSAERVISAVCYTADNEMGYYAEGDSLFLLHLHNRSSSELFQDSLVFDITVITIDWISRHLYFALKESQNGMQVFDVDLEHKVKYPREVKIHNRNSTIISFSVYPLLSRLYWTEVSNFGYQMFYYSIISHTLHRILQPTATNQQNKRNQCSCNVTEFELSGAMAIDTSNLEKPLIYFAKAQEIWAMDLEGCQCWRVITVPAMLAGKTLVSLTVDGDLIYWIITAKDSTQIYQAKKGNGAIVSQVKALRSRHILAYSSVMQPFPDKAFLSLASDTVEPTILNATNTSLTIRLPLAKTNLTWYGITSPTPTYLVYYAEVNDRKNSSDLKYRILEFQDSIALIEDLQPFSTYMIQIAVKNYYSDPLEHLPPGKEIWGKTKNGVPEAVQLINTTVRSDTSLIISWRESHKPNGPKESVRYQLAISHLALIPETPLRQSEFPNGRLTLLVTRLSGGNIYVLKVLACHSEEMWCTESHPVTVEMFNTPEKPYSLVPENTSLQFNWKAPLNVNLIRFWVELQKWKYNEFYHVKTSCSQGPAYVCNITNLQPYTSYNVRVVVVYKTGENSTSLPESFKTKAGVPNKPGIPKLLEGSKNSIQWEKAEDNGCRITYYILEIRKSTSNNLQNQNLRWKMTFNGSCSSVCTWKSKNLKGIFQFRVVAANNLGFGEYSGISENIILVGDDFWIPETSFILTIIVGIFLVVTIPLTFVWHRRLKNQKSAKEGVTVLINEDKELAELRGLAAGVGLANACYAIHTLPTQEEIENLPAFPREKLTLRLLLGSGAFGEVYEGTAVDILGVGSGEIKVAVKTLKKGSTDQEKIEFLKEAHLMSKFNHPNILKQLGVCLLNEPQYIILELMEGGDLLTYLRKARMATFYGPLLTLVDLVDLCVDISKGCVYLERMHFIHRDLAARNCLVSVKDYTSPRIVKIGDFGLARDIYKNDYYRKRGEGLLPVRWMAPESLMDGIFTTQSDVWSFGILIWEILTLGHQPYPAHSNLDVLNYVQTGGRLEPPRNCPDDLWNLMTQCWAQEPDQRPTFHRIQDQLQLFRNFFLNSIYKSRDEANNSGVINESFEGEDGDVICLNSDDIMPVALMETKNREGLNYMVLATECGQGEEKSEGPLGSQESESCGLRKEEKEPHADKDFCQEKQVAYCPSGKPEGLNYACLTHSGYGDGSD
Method in brief: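 Ros1 kinase, IRS-Tide peptide, 20 μM ATP + [33P]ATP (substrate-mix concentrations); Tris-HCl pH7.5, 10 mM MgCl2, 1 mM EGTA, 0.01% Tween-20; 120 min RT; EDTA/excess ATP stop, streptavidin beads 15 min, LEADseeker imaging.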

[5] = counter-screen, wild-type, 10 ng/ml murine IL-3

EC50 ([1]; HCC78 cells, 4 days, MTT) [nM]	melting point [°C]	Ba/F3 Ros1 L2026M (-IL-3) pIC50 [3]	BaF3-ROS1-IL3 pIC50 [4]	IC50 (Ros1 enzyme) [nM]	HCC-78 PROL pEC50 ([1]; HCC78 cells, 4 days, MTT)	ROS1 pIC50 (Ros1 enzyme)	Compound	CC50 [2, 5] [nM]	EC50 [1] [nM]	CC50 [2] [nM]
501	252	6.8	7.1	631			CC(C)c1ccc(C2CNc3cc(-c4c(-c5ccncc5)nn5c4C(=O)NCC5)ccc3O2)cc1 (racemic) [Compound 226]	> 10000		
	144	7.5	7.9	12.6	7.3		CC(C)c1ccc(COc2ccc(-c3c(-c4ccncc4)nn4c3C(=O)N(C(C)CO)CC4)cc2)cc1 (single isomer, unassigned) [Compound 38]			
	188	7.4	7.8		7.7	7.9	CC(C)c1ccc(COc2ccc(-c3c(-c4ccncc4)nn4c3C(=O)N(CC(O)CO)CC4)c(F)c2)cc1 (stereo not drawn) [Compound 22]			
	191	6.6	7.4	31.6	7.1		CC(C)c1ccc(COc2ccc(-c3c(-c4ccncc4)nn4c3C(=O)N(CC(O)CO)CC4)cc2)cc1 (stereo not drawn) [Compound 41]			
	227		6.8	158	6.4		CC(C)c1cc(F)c(COc2ccc(-c3c(-c4ccncc4)nn4c3C(=O)N(CC(O)CO)CC4)cc2)c(F)c1 (stereo not drawn) [Compound 95]	> 10000		
	228	6.6	6.9		5.9	6.8	CC(C)c1cc(F)c(COc2ccc(-c3c(-c4ccncc4)nn4c3C(=O)N(CC(O)CO)CC4)cc2)c(F)c1 (stereo not drawn) [Compound 96]			
	183	6.0	6.6	501	5.7		CC(C)c1cc(F)c(COc2ccc(-c3c(-c4ccncc4)nn4c3C(=O)N(CC(O)CO)CC4)cc2)cc1F (stereo not drawn) [Compound 99]			
1000	233	5.9	6.3				CC(C)(CN)c1ccc(COc2ccc(-c3c(-c4ccncc4)nn4c3C(=O)NCC4)cc2)cc1 [Compound 121]	> 10000		
	197	7.0	7.3	158	6.5		CC(O)CN1CCn2nc(-c3ccncc3)c(-c3ccc(OCc4ccc(C5CC5)cc4)cc3)c2C1=O (stereo not drawn) [Compound 135]			
2000		5.8	6.4	251			O=C1c2c(-c3ccc(OCc4ccc(C5CC5)nc4)cc3)c(-c3ccncc3)nn2CCN1CC(O)CO (stereo not drawn) [Compound 140]	> 10000		
3980		7.6	6.2	2000			CC(C)c1ccc(C(CO)Oc2ccc(-c3c(-c4ccncc4)nn4c3C(=O)NCC4)cc2)cc1 (stereo not drawn) [Compound 146]	> 10000		
794		6.7	7.0	158			CNC(=O)CN1CCn2nc(-c3ccncn3)c(-c3ccc(OCc4ccc(C(C)C)cc4)cc3)c2C1=O [Compound 164]	> 10000		
251		6.6	7.3	100			Fc1cc(OCc2ccc(C3CC3)cc2)ccc1-c1c(-c2ccncc2)nn2c1CNCC2 [Compound 184]	> 10000		
	151	6.9	6.9		6.2	6.8	CC(O)CN1CCn2nc(-c3ccncc3)c(-c3ccc(OCc4ccc(C(C)C)cc4)cc3)c2C1 (stereo not drawn) [Compound 192]			
398		6.3	6.8	63.1			O=C1c2c(-c3ccc(OCc4ccc(C5CC5)nc4)cc3F)c(-c3ccncc3)nn2CCN1CC(O)CO (stereo not drawn) [Compound 208]	> 10000		
3160		6.0	6.3	398			CNC(=O)C(Oc1ccc(-c2c(-c3ccncc3)nn3c2C(=O)NCC3)cc1)c1ccc(C(C)C)cc1 (stereo not drawn) [Compound 217]	> 10000		
316		6.5	6.7	25.1			CNCCc1cc(COc2ccc(-c3c(-c4ccncc4)nn4c3C(=O)N(CCO)CC4)cc2)ccc1C(C)C [Compound 235]	> 10000		
126		7.4	7.6	15.8			CNCCc1cc(COc2ccc(-c3c(-c4ccncc4)nn4c3C(=O)N(C)CC4)cc2)ccc1C(C)C [Compound 236]	3980		

Compound	EC50 ([1]; HCC78 cells, 4 days, MTT) [nM]	melting point [°C]	Ba/F3 Ros1 L2026M (-IL-3) pIC50 [3]	BaF3-ROS1-IL3 pIC50 [4]	IC50 (Ros1 enzyme) [nM]	HCC-78 PROL pEC50 ([1]; HCC78 cells, 4 days, MTT)	ROS1 pIC50 (Ros1 enzyme)	CC50 [2, 5] [nM]	EC50 [1] [nM]	CC50 [2] [nM]
CC(C)c1ccc(COc2ccc(-c3c(-c4ccncc4)nn4c3C(=O)NCC4)cc2)cc1CC(O)CO (stereo not drawn) [Compound 91]			6.6	7.3	31.6				63.1	> 10000
CC(CO)c1ccc(COc2ccc(-c3c(-c4ccncc4)nn4c3C(=O)N(CCO)CC4)cc2)cc1 (stereo not drawn) [Compound 128]			6.2	6.6	1260				1000	> 10000
CC(C)c1ccc(COc2ccc(-c3c(-c4ccncn4)nn4c3C(=O)N(CCOCCO)CC4)cc2)cc1 [Compound 162]			7.1	7.2	79.4				398	> 10000
CC(C)c1ccc(COc2ccc(-c3c(-c4ccncc4)nn4c3CN(CCO)CC4)c(F)c2)cc1 [Compound 187]			6.4	7.2	79.4				100	> 10000
CC(C)c1ccc(COc2ccc(-c3c(-c4ccncc4)nn4c3C(=O)N(C)C(CO)C4)cc2)cc1 (stereo not drawn) [Compound 196]			6.4	6.9	158				631	> 10000
CC(C)c1ccc(COc2cc(F)c(-c3c(-c4ccncc4)nn4c3C(=O)N(CCO)CC4)cc2F)cc1 [Compound 203]			8.0	8.2	3.98				10	> 10000
O=C1c2c(-c3ccc(OCc4ccc(C5CC5)nc4)cc3F)c(-c3ccncc3)nn2CCN1CCO [Compound 207]			6.5	7.1	20				501	> 10000
CNC(=O)CN1CCn2nc(-c3ccncc3)c(-c3ccc(OCc4ccc(C(C)C)cc4)cc3F)c2C1 [Compound 209]			7.5	7.5	63.1				501	5010
C[Si](C)(C)c1ccc(COc2ccc(-c3c(-c4ccncc4)nn4c3C(=O)NCC4)cc2)cc1 [Compound 232]	2510		6.5	6.7	2000			> 10000		
CNCCc1cc(COc2ccc(-c3c(-c4ccncc4)nn4c3C(=O)NCC4)cc2)ccc1C(C)C [Compound 234]			6.7	7.1	20				126	> 10000
